Assay results from US20240269151A1, “NASAL SLEEP FORMULATION” (CS MEDICA A/S, priority 2021, published 2024).

Test: Comparison of nasal sleep compositions formulated with type A or type B crystalline CBD
Assay type: in vivo
Conditions: nasal sleep compositions differing only in the crystalline CBD used
Protocol: Two nasal sleep compositions are prepared as disclosed herein, such as according to Example 1, 5 and/or 7, the only difference being that the crystalline CBD used in the formulation is either of type A (needle-like crystals; FIG. 1) or type B (bunch/cluster-like; FIG. 2).
Type A crystalline CBD is sourced from Enecta, while type B CBD is sourced from Pharma Hemp. Further details can e.g. be found in the first aspect of the invention, such as Table 1.

With `C=C(C)[C@@H]1CCC(C)=C[C@H]1c1c(O)cc(CCCCC)cc1O` [type A CBD, Cannabidiol] the “Activity/potency of type A CBD versus type B CBD” value was “significantly more active than type B CBD” and the “Activity/potency of type A CBD versus type B CBD” value (listed as CBD with a needle-like crystal structure) was “significantly more potent than CBD with a different crystal structure”.
